Experimental data as given in patent US12642270B2, “Substituted thiophene carboxamides, thiophene carboxylic acids and derivatives thereof” (Bayer Aktiengesellschaft, priority 2019, dated 2026).

Test: Log P by HPLC on reversed phase columns (EEC directive 79/831 Annex V.A8)
Type: physicochemical
How it was run: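 Reversed-phase HPLC per EEC 79/831 Annex V.A8, LC-UV with 10→95% acetonitrile linear gradient; eluent [a] 0.1% formic acid (acidic), [b] 0.001 M ammonium acetate (neutral), [c] 0.1% phosphoric acid (acidic). Calibrated with C3–C16 straight-chain alkan-2-ones, linear interpolation of retention times; multiple values joined by "+".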

[1] = LogP method [a], compounds of formula (I), Table 1.1

| SMILES | LogP [1] | LogP (method [a]) |
| --- | --- | --- |
| O=C(O)CNC(=O)CNC(=O)c1cc(I)c(I)s1 [1.0474] | 1.63^[a] | – |
| NC(=O)C1(NC(=O)c2cc(I)c(I)s2)CC1 [1.0475] | 1.87^[a] | – |
| CCOC(=O)C1(NC(=O)C2(NC(=O)c3cc(I)c(I)s3)CC2)CC1 [1.0476] | 2.59^[a] | – |
| CSC(=O)C1(NC(=O)c2cc(I)c(I)s2)CC1 [1.0477] | 3.04^[a] | – |
| O=C(NC1(C(=O)NC2(C(=O)O)CC2)CC1)c1cc(I)c(I)s1 [1.0478] | 1.53^[a] | – |
| CCOC(=O)C1(NC(=S)c2cc(Cl)c(Br)s2)CC1 [1.0479] | 3.92^[a] | – |
| CCSC(=O)C1(NC(=O)c2cc(I)c(I)s2)CC1 [1.0480] | 3.39^[a] | – |
| CCOC(=O)CCNC(=O)c1sc(C)c(Br)c1F [1.0481] | 2.78^[a] | – |
| CCOC(=O)C(C)NC(=O)c1sc(Cl)c(Br)c1Br (stereo not drawn) [1.0482] | 3.91^[a] | – |
| COC(=O)C1(NC(=O)c2sc(Cl)c(Br)c2Br)CC1 [1.0483] | 3.08^[a] | – |
| CCOC(=O)CNC(=S)c1sc(Cl)c(Br)c1Cl [1.0484] | 4.59^[a] | – |
| COC(=O)CNC(=S)c1sc(Cl)c(Br)c1Cl [1.0485] | 4.08^[a] | – |
| O=C(NC1(C(=O)O)CCC1)c1sc(Cl)c(Br)c1Cl [1.0486] | 2.95^[a] | – |
| O=C(NC1(C(=O)O)COC1)c1sc(Br)c(Br)c1F [1.0489] | 1.98^[a] | – |
| O=C(NC1(C(=O)O)CCC1)c1sc(Br)c(Br)c1Cl [1.0490] | 2.92^[a] | – |
| CCOC(=O)CN(O)C(=O)c1sc(Cl)c(Cl)c1Br [1.0491] | 2.95^[a] | – |
| COC(=O)CNC(=O)c1sc(Br)c(Br)c1Cl [1.0492] | 2.92^[a] | – |
| CCOC(=O)CNC(=S)c1sc(Br)c(Br)c1Cl [1.0493] | 4.58^[a] | – |
| O=C(O)CNC(=O)c1sc(Br)c(Br)c1Cl [1.0494] | 2.28^[a] | – |
| CCOC(=O)C(NC(=O)c1sc(Br)c(Br)c1F)C1CC1 (stereo not drawn) [1.0495] | 3.98^[a] | – |
| COC(=O)C(NC(=S)c1sc(Br)c(Br)c1F)C1CC1 (stereo not drawn) [1.0496] | 4.62^[a] | – |
| COC(=O)C(Cc1ccccc1)NC(=S)c1sc(Br)c(Br)c1F (stereo not drawn) [1.0497] | 5.32^[a] | – |
| COC(=O)CC[C@H](NC(=O)c1sc(Br)c(Br)c1Cl)C(=O)OC [1.0498] | 3.40^[a] | – |
| COC(=O)CNC(=S)c1sc(Cl)c(Cl)c1I [1.0499] | 4.12^[a] | – |

| SMILES | LogP [1] | LogP (method [a]) |
| --- | --- | --- |
| O=C(O)CNC(=S)c1sc(Cl)c(Br)c1Cl [1.0500] | 3.10^[a] | – |
| CCOC(=O)C(NC(=O)c1sc(Br)c(C(F)F)c1Br)C(C)C (stereo not drawn) [1.0502] | 4.21^[a] | – |
| COC(=O)C(NC(=O)c1sc(Br)c(C(F)F)c1Br)C1CC1 (stereo not drawn) [1.0503] | 3.37^[a] | – |
| CCOC(=O)C(Cc1ccccc1)NC(=O)c1sc(Br)c(C(F)F)c1Br (stereo not drawn) [1.0504] | 4.40^[a] | – |
| COC(=O)C1(NC(=O)c2sc(Br)c(C(F)F)c2Br)CCC1 [1.0505] | 3.25^[a] | – |
| CCOC(=O)C1(NC(=O)c2sc(Br)c(C(F)F)c2Br)CCC1 [1.0506] | 3.66^[a] | – |
| CCCOC(=O)C1(NC(=O)c2sc(Br)c(C(F)F)c2Br)CC1 [1.0507] | 3.42^[a] | – |
| O=C(NC1(C(=O)OC2CCC2)CC1)c1sc(Br)c(C(F)F)c1Br [1.0508] | 3.57^[a] | – |
| N#CCNC(=O)c1sc(Br)c(C(F)F)c1Br [1.0509] | 2.37^[a] | – |
| CCOC(=O)CNC(=O)c1sc(C(F)F)c(Br)c1Br [1.0510] | 3.02^[a] | – |
| COC(=O)CNC(=O)c1sc(C(F)F)c(Br)c1Br [1.0511] | 2.64^[a] | – |
| COC(=O)C1(NC(=O)c2sc(C(F)F)c(Br)c2Br)CC1 [1.0512] | 2.79^[a] | – |
| COC(=O)C(C)(C)NC(=O)c1sc(C(F)F)c(Br)c1Br [1.0513] | 3.32^[a] | – |
| CCOC(=O)C(NC(=O)c1sc(C(F)F)c(Br)c1Br)C(C)C (stereo not drawn) [1.0514] | 4.30^[a] | – |
| COC(=O)C(NC(=O)c1sc(C(F)F)c(Br)c1Br)C1CC1 (stereo not drawn) [1.0515] | 3.46^[a] | – |
| CCOC(=O)C(Cc1ccccc1)NC(=O)c1sc(C(F)F)c(Br)c1Br (stereo not drawn) [1.0516] | 4.48^[a] | – |
| COC(=O)C1(NC(=O)c2sc(C(F)F)c(Br)c2Br)CCC1 [1.0517] | 3.35^[a] | – |
| CCOC(=O)C1(NC(=O)c2sc(C(F)F)c(Br)c2Br)CCC1 [1.0518] | 3.75^[a] | – |
| CCCOC(=O)C1(NC(=O)c2sc(C(F)F)c(Br)c2Br)CC1 [1.0519] | 3.51^[a] | – |
| O=C(NC1(C(=O)OC2CCC2)CC1)c1sc(C(F)F)c(Br)c1Br [1.0520] | 3.67^[a] | – |
| N#CCNC(=O)c1sc(C(F)F)c(Br)c1Br [1.0521] | 2.45^[a] | – |
| CCOC(=O)C1(NC(=O)c2sc(C(F)F)c(Br)c2Br)CC1 [1.0522] | 3.14^[a] | – |
| CC(C)(NC(=O)c1sc(Br)c(Br)c1F)C(=O)O [1.0523] | 2.54^[a] | – |
| CCOC(=O)C(NC(=O)c1sc(Cl)c(Cl)c1Br)C1CC1 (stereo not drawn) [1.0524] | 4.35^[a] | – |

| SMILES | LogP [1] | LogP (method [a]) |
| --- | --- | --- |
| COC(=O)C1(NC(=S)c2sc(Br)c(Cl)c2C)CC1 [1.0526] | 3.67^[a] | – |
| COC(=O)CNC(=O)c1sc(Br)c(Br)c1F [1.0527] | 2.52^[a] | – |
| COC(=O)C(CC(=O)OC(C)(C)C)NC(=O)c1sc(Br)c(Br)c1Cl (stereo not drawn) [1.0528] | 4.55^[a] | – |
| COC(=O)[C@H](CSC(=O)N(C)C)NC(=O)c1sc(Cl)c(Cl)c1Br [1.0529] | 3.58^[a] | – |
| CCNC(=O)SC[C@H](NC(=O)c1sc(Cl)c(Cl)c1Br)C(=O)OC [1.0530] | – | 3.39^[a] |
| CNC(=S)SC[C@H](NC(=O)c1sc(Cl)c(Cl)c1Br)C(=O)OC [1.0531] | – | 3.56^[a] |
| CCOC(=O)CC[C@H](NC(=O)c1sc(Br)c(Br)c1Cl)C(=O)OCC [1.0532] | – | 4.23^[a] |
| COC(=O)[C@H](CSC(=O)N(C)C)NC(=O)c1sc(Br)c(Br)c1F [1.0533] | – | 3.27^[a] |
| CNC(=S)SC[C@H](NC(=O)c1sc(Br)c(Br)c1F)C(=O)OC [1.0534] | – | 3.24^[a] |
| COC(=O)C(CSC(=O)N(C)C)NC(=O)c1sc(Br)c(Br)c1Cl (stereo not drawn) [1.0535] | – | 3.59^[a] |
| CCNC(=O)SCC(NC(=O)c1sc(Br)c(Br)c1Cl)C(=O)OC (stereo not drawn) [1.0536] | – | 3.38^[a] |
| CNC(=S)SC[C@H](NC(=O)c1sc(Br)c(Br)c1Cl)C(=O)OC [1.0537] | – | 3.54^[a] |
| COC(=O)CNC(=S)c1sc(Br)c(Br)c1F [1.0538] | – | 3.74^[a] |
| COC(=O)C1(NC(=O)c2sc(Br)c(Br)c2F)CC1 [1.0539] | – | 2.09^[a] |
| COC(=O)C(C)(C)NC(=O)c1sc(Br)c(Br)c1F [1.0540] | – | 3.34^[a] |
| COC(=O)C1(NC(=O)c2sc(Br)c(Br)c2F)COC1 [1.0541] | – | 2.49^[a] |
| CCOC(=O)CN(O)C(=O)c1sc(Br)c(Br)c1F [1.0542] | – | 2.54^[a] |
| CCNC(=O)SC[C@H](NC(=O)c1sc(Br)c(Br)c1F)C(=O)OC [1.0543] | – | 3.10^[a] |
| COC(=O)C(C1CC1)N(O)C(=O)c1sc(Cl)c(Cl)c1Br (stereo not drawn) [1.0544] | – | 3.05^[a] |
| CCOC(=O)C[C@H](NC(=O)c1sc(Br)c(Br)c1Cl)C(=O)OCC [1.0545] | – | 4.15^[a] |
| COC(=O)C[C@H](NC(=O)c1sc(Br)c(Br)c1Cl)C(=O)OC [1.0546] | – | 3.33^[a] |
| CCOC(=O)C(CSC(C)=O)NC(=O)c1sc(Cl)c(Cl)c1Br (stereo not drawn) [1.0547] | – | 3.46^[a] |
| COC(=O)C[C@H](NC(=O)c1sc(Cl)c(Cl)c1Br)C(=O)OC [1.0548] | – | 3.33^[a] |
| COC(=O)CC[C@H](NC(=O)c1sc(Cl)c(Cl)c1Br)C(=O)OC [1.0549] | – | 3.41^[a] |

| SMILES | LogP [1] | LogP (method [a]) |
| --- | --- | --- |
| CCOC(=O)C(CSC)NC(=O)c1sc(Br)c(Br)c1Cl (stereo not drawn) [1.0550] | – | 4.32^[a] |
| CCOC(=O)C[C@H](NC(=O)c1sc(Cl)c(Cl)c1Br)C(=O)OCC [1.0551] | – | 4.17^[a] |
| COC(=O)[C@H](CC(=O)OC(C)(C)C)NC(=O)c1sc(Cl)c(Cl)c1Br [1.0552] | – | 4.59^[a] |
| COC(=O)C(CCSC(C)=O)NC(=O)c1sc(Br)c(Br)c1F (stereo not drawn) [1.0553] | – | 3.13^[a] |
| CCOC(=O)C(CSC(C)=O)NC(=O)c1sc(Br)c(Br)c1F (stereo not drawn) [1.0554] | – | 3.18^[a] |
| COC(=O)C[C@H](NC(=O)c1sc(Br)c(Br)c1F)C(=O)OC [1.0555] | – | 2.99^[a] |
| CCOC(=O)C(CSC)NC(=O)c1sc(Br)c(Br)c1F (stereo not drawn) [1.0556] | – | 3.87^[a] |
| COC(=O)CC[C@H](NC(=O)c1sc(Br)c(Br)c1F)C(=O)OC [1.0557] | – | 3.07^[a] |
| CCOC(=O)C[C@H](NC(=O)c1sc(Br)c(Br)c1F)C(=O)OCC [1.0558] | – | 3.76^[a] |
| CCOC(=O)CC[C@H](NC(=O)c1sc(Br)c(Br)c1F)C(=O)OCC [1.0559] | – | 3.84^[a] |
| COC(=O)[C@H](CC(=O)OC(C)(C)C)NC(=O)c1sc(Br)c(Br)c1F [1.0560] | – | 4.12^[a] |
| CCOC(=O)C(CSC(C)=O)NC(=O)c1sc(Br)c(Br)c1Cl (stereo not drawn) [1.0561] | – | 3.44^[a] |
| CCOC(=O)CC[C@H](NC(=O)c1sc(Cl)c(Cl)c1Br)C(=O)OCC [1.0562] | – | 4.25^[a] |
| N#CNC(=O)CNC(=O)c1sc(Br)c(Br)c1F [1.0563] | – | 2.17^[a] |
| COC(=O)CNC(=O)c1sc(C)c(Cl)c1Cl [1.0564] | – | 2.45^[a] |
| COC(=O)C1(NC(=O)c2sc(C#N)c(Br)c2Cl)CCC1 [1.0565] | – | 2.98^[a] |
| CCOC(=O)C1(NC(=O)c2sc(C#N)c(Br)c2Cl)CCC1 [1.0566] | – | 3.38^[a] |
| CCCOC(=O)C1(NC(=O)c2sc(C#N)c(Br)c2Cl)CC1 [1.0567] | – | 3.18^[a] |
| N#Cc1sc(C(=O)NC2(C(=O)OC3CCC3)CC2)c(Cl)c1Br [1.0568] | – | 3.32^[a] |
| N#CCNC(=O)c1sc(C#N)c(Br)c1Cl [1.0569] | – | 2.08^[a] |
| CCOC(=O)CNC(=O)c1sc(C#N)c(Cl)c1Cl [1.0570] | – | 2.60^[a] |
| COC(=O)CNC(=O)c1sc(C#N)c(Cl)c1Cl [1.0571] | – | 2.20^[a] |
| CCOC(=O)C1(NC(=O)c2sc(C#N)c(Cl)c2Cl)CC1 [1.0572] | – | 2.76^[a] |
| COC(=O)C1(NC(=O)c2sc(C#N)c(Cl)c2Cl)CC1 [1.0573] | – | 2.40^[a] |
